{"source": "patent US6258840A", "about": "“Analogues or derivatives of quercetin (prodrugs)” (Cobra Therapeutics Limited, priority 1996, dated 2001)", "key": {"[1]": {"experiment": "Stability to Human Plasma (HPLC, 37° C.)", "assay_type": "in vitro ADME", "conditions": "for half-life: 0.02 ml of 6.3 mg/ml prodrug solution added to 2.5 ml plasma", "protocol": "Freshly prepared plasma (2.5 ml) was incubated at 37° C. and 0.02 ml of a 6.3 mg/ml solution of the prodrug compound in water was added. Aliquots of plasma were taken for HPLC analysis at zero time and at intervals thereafter. Samples were quenched with chilled methanol, the resulting precipitate was centrifuged at 4° C. at 800 rpm for 5 minutes, and the supernatant was analysed by HPLC."}, "[2]": {"test_system": "calcium- and phospholipid dependent protein kinase (protein kinase C)", "conditions": "in vitro; cited from earlier work"}, "[3]": {"test_system": "calcium- and phospholipid dependent protein kinase (protein kinase C)", "conditions": "in vivo; cited from earlier work"}, "[4]": {"test_system": "antiproliferative activity of cis-diaminedichloroplatinum II (cis-DDP)", "conditions": "in vitro, with cis-DDP; cited from earlier work"}, "[5]": {"test_system": "antiproliferative activity of cis-diaminedichloroplatinum II (cis-DDP)", "conditions": "in vivo, with cis-DDP; cited from earlier work"}, "[6]": {"conditions": "pharmaceutically acceptable solvents; cited from earlier work"}}, "note": "Where a name gives a salt, the structure may show the parent alone. Read-outs that look alike come from different tables or passages of the source."}
{"compound": "3'/4'-((N-Carboxymethyl)carbamoyloxy)-3,4'(3'),5,7-tetrahydroxy-flavone, N-Methyl-D-glucamine salt", "values": [{"measurement": "pH of solution in water", "setting": "10 mg/ml solution in water", "result": "approximately 7"}, {"measurement": "period for which the solution is stable", "setting": "10 mg/ml solution in water, -20° C.", "result": "at least 12 weeks"}, {"measurement": "pH of solution in dextrose", "setting": "diluted into dextrose, final prodrug concentration 1 mg/ml", "result": "approximately 6"}]}
{"compound": "O=C(O)CNC(=O)Oc1cc(-c2oc3cc(O)cc(O)c3c(=O)c2O)ccc1O", "note": "[3' carbamate ester, 3'-((N-Carboxymethyl)carbamoyloxy)-3,4',5,7-tetrahydroxyflavone, N-Methyl-D-glucamine salt]", "values": [{"measurement": "conversion into Quercetin", "setting": "[1]", "result": "converted into Quercetin"}, {"measurement": "half-life", "setting": "[1]", "result": "~1", "unit": "h"}]}
{"compound": "O=C(O)CNC(=O)Oc1ccc(-c2oc3cc(O)cc(O)c3c(=O)c2O)cc1O", "note": "[4' carbamate ester]", "values": [{"measurement": "conversion into Quercetin", "setting": "[1]", "result": "converted into Quercetin"}, {"measurement": "half-life", "setting": "[1]", "result": "~1", "unit": "h"}]}
{"compound": "O=c1c(O)c(-c2ccc(O)c(O)c2)oc2cc(O)cc(O)c12", "note": "[Quercetin, 3,3',4',5,7-pentahydroxyflavone]", "values": [{"measurement": "inhibition of protein kinase C activity", "setting": "[2]", "result": "inhibit the activity"}, {"measurement": "inhibition of protein kinase C activity", "setting": "[3]", "result": "inhibit the activity"}, {"measurement": "enhancement of antiproliferative activity of cis-DDP", "setting": "[4]", "result": "synergistically enhances the antiproliferative activity"}, {"measurement": "enhancement of antiproliferative activity of cis-DDP", "setting": "[5]", "result": "synergistically enhances the antiproliferative activity"}, {"measurement": "solubility", "setting": "[6]", "result": "limited solubility"}]}
